Measurements reported in paper PMC7737769, “Pharmacological inhibition of syntenin PDZ2 domain impairs breast cancer cell activities and exosome loading with syndecan and EpCAM cargo” (Journal of Extracellular Vesicles, 2020).

What was measured:
GRASP55‐PDZ tandem = system: T1, GRASP55‐PDZ tandem; assay: Surface plasmon resonance (BIAcore), GRASP55 PDZ tandem; format: binding, human; conditions: 50µM ‐1000 µM
T1 construct: made in house; host or cells: Biotin XCell F' E. coli cells
Experimental: All SPR experiments were conducted with a BIAcore T200 instrument (GE Healthcare), at 25°C. A total of 8000 resonance units (RU) of biotinylated ligands (N‐terminal 6xHis tagged biotinylated syntenin tandem, syntenin tandem with C terminus, GRASP55 tandem or GST as control) were immobilized on a streptavidin‐sensor chip (GE Healthcare). Analytes (C58 and SyntOFF compounds) were perfused at 30 µl per min in running buffer (10 mM HEPES pH 7.4, 150 mM NaCl, 0.005% Tween20) at different concentrations. The reference channel was N‐terminal 6xHis tagged biotinylated GST protein. The injection time was 240 s, long enough for the sensorgrams to reach equilibrium, and the dissociation time was 240 s. To carry out these SPR experiments, we employed the method known as ‘single‐cycle kinetics’ described in 2006 by Karlsson and co‐workers (Karlsson, Katsamba, Nordin, Pol, & Myszka, 2006). It consists in injecting the analyte at increasing concentrations, without regeneration steps between each sample injection to avoid that folded‐proteins can be damaged after regeneration steps. Equilibrium dissociation constants (KD) were calculated by fitting the data to a simple Langmuir binding isotherm using GraphPad Prism. For determination of the apparent KD, signals obtained at equilibrium were plotted as a function of compound concentration. […]

MCF‐7 cells = assay: Wound-healing (migration) assay, MCF-7; format: cell-based; conditions: MCF-7, 100 µM, 24 h
Experimental: For migration assays, cells were treated with 1 ng/ml of mitomycin (Sigma M4287) overnight to inhibit cell division. Treated cells were plated in Ibidi culture‐inserts (Ibidi Cat‐80206) for 12 h to reach 90%–95% of confluence with or without compounds (100 µM). A wound was created by removing inserts from the dishes. Medium with or without compounds (100 µM) was refreshed to remove dead cells and the cells were observed under an inverted light microscope (Leica SP2) equipped with a camera. Images were taken by MetaMorph software every 10 min for 24 h. Measurements of cell velocity were calculated using the MetaMorph software.

MCF‐7 SyntKO cells = assay: Mammosphere formation assay, MCF-7 SyntKO; format: cell-based; conditions: 100 µM
Experimental: MCF‐7 and MCF‐7 SyntKO cells were treated with increasing concentrations of compounds C58, SyntOFF (50‐100µM) or DMSO 0.2% as control. After 24 h, cells were trypsinized, re‐suspended in normal growth media and washed three times in PBS to remove serum. Cell concentration was determined using the LUNA-FL Automated Fluorescence Cell Counter (Logos Biosystem) and cells were then seeded at 1000 cells/ml in 6‐well Ultra low Adherence plates (Corning Inc., Corning, NY) in MEBM medium (Lonza) supplemented with 5 µg/ml insulin (Sigma‐Aldrich), 20 ng/ml recombinant epidermal growth factor (Sigma‐Aldrich), 1X of B27 supplement (Invitrogen, Carlsbad, CA, USA), 0.5 µg/ml hydrocortisone (Sigma‐Aldrich), 1X of β‐mercaptoethanol and 1% penicillin/streptomycin (Gibco). Fresh medium was added into the plates every 3–4 days. The number of spheres (diameter > 50 µm) was evaluated under microscope on days 7–10. Sphere formation was calculated as the number of spheres divided by the original number of cells seeded and normalized to control.

SMILES	binding to GRASP55‐PDZ tandem (GRASP55‐PDZ tandem)	cell migration (wound closure) (MCF‐7 cells)	mammosphere formation (MCF‐7 SyntKO cells)
CC(C)[C@H](NC(=O)CSc1ccc(Cl)cc1)C(=O)O [Compound C58]	no binding	decreases	
CC(C)[C@H](NC(=O)CCSc1ccc(Cl)cc1)C(=O)O [SyntOFF, (S)‐2‐(3‐(4‐chlorophenylthio)propanamido)‐3‐methylbutanoic acid]			no effect
